≈ marks a conversion by molar mass, not a printed value. Read-outs that look alike come from different tables or passages of the source. Blank lines part the entries; values can stand above or below the molecule they belong to.
Assays:
Assay type in all cases: physicochemical
[1] = Solubility of Forms A and G after 40 min stirring; details: for solubility at 40 min: organic solvent or mixture, thermodynamic from solid
Experimental: (§1) For purity estimation and determination of the solubility in solution a generic in-house HPLC method was used. HPLC was performed using a Phenomenex Luna 3 μm C18 (50×4.6 mm) column and detected with a DAD detector, recording at 214 nm.

[2] = Solubility of Form A at 20° C. and 40° C.; details: organic solvent or mixture, thermodynamic from solid
Experimental: as §1
To develop a Form A crystallization, a series of solubility data points was collected (Table 5). An amount of up to 15 mg was suspended in 150 μL and the mixture stirred for 2 days. Solubility was then determined by HPLC or by calculation if a solution was observed.

[3] = Form stability analysis (solubility and concurrent slurry experiments)
Experimental: As form conversions tend to happen faster at elevated temperature at 60° C., slurries were performed for the starting material used for the screening (A/G mixture) during 18 h at 60° C.
Forms J and C were identified as potential non-solvates and their stability was investigated. Form J could be eliminated as stable form because, in part, the DSC (FIG. 36) indicated an exothermic form conversion around 140° C. This leads to a form melting at 210° C., which likely represents Form G and therefore represents a monotropic relation.
Form C was obtained by drying a Form C/J mixture. The XRPD pattern appeared to contain traces of reflexes of Form J. Slurries of Form C seeded with Form A (15% w/w) in ethanol and acetone were performed during 18 h. The resulting solid was pure Form A. This also confirmed the exothermic event observed in DSC (FIG. 16) which indicated a monotropic relation to the form formed in DSC around 130° C. (melting point 210° C., which, as described herein, is likely Form G).

[4] = Slurry screening, solubility determined by HPLC; details: thermodynamic from solid; for solubility at 5 days: slurry stirred 5 days; for Solubility: solution
Experimental: as §1
The slurry experiments were performed by taking approximately 40 mg starting material and slurrying in each of the solvent mixtures as detailed Table 3 using a magnetic stir bar. Solvents were chosen as described to have a high diversity (e.g., in polarity, protic/aprotic). The solvents were not necessarily selected for pharmaceutical suitability in regards to ICH guidelines. Only as much solvent or mixtures as needed to slurry/suspend the material was used—starting from 200 μL to a maximum of 2 mL. The slurries were stirred for 5 days. The suspensions were filtered and the filter cake slightly dried to not destroy potential solvates and subjected to XRPD. In case suspensions started to run through the filter the suspensions were dried using a nitrogen stream. As the solubility was tested in the solvents, the evaporated solvent provides a small amount of solid compared to the material suspended (i.e., the slurry form still should be dominant).

Compound: CCCN(CCC)C(=O)C1=Cc2ccc(-c3ccc(C(=O)N4CCCC4)cc3)cc2N=C(N)C1 [Compound A, (1E, 4E)-2-amino-N,N-dipropyl-8-(4-(pyrrolidine-1-carbonyl)phenyl)-3H-benzo[b]azepine-4-carboxamide]
solubility at 40 min ([1]; EtOH, 0 °C): 4700 µg/mL (≈ 10.2 mM)
solubility at 40 min ([1]; EtOH, 22 °C): 11700 µg/mL (≈ 25.5 mM)
solubility at 40 min ([1]; EtOH, 60 °C): 32100 µg/mL (≈ 70 mM)
solubility at 40 min ([1]; MEK, 0 °C): 1800 µg/mL (≈ 3.92 mM)
solubility at 40 min ([1]; MEK, 22 °C): 2400 µg/mL (≈ 5.23 mM)
solubility at 40 min ([1]; MEK, 60 °C): 3700 µg/mL (≈ 8.07 mM)

Compound: CCCN(CCC)C(=O)C1=Cc2ccc(-c3ccc(C(=O)N4CCCC4)cc3)cc2N=C(N)C1 [Form A, (1E, 4E)-2-amino-N,N-dipropyl-8-(4-(pyrrolidine-1-carbonyl)phenyl)-3H-benzo[b]azepine-4-carboxamide]
solubility at 2 days ([2]; 2-PrOH, 20° C., stirred 2 days): 4500 µg/mL (≈ 9.81 mM)
solubility at 2 days ([2]; 2-PrOH, 40° C., stirred 2 days): 9590 µg/mL (≈ 20.9 mM)
solubility at 2 days ([2]; DMSO, 20° C., stirred 2 days): 21600 µg/mL (≈ 47.1 mM)
solubility at 2 days ([2]; DMSO, 40° C., stirred 2 days): 50900 µg/mL (≈ 111 mM)
solubility at 2 days ([2]; DMSO/EtOAc 1:1 v/v, 20° C., stirred 2 days): 15000 µg/mL (≈ 32.7 mM)
solubility at 2 days ([2]; DMSO/EtOAc 1:1 v/v, 40° C., stirred 2 days): 36900 µg/mL (≈ 80.5 mM)
solubility at 2 days ([2]; DMSO/TBME 1:1 v/v, 20° C., stirred 2 days): 17200 µg/mL (≈ 37.5 mM)
solubility at 2 days ([2]; DMSO/TBME 1:1 v/v, 40° C., stirred 2 days): 44600 µg/mL (≈ 97.3 mM)
solubility at 2 days ([2]; EtOH, 20° C., stirred 2 days): 8500 µg/mL (≈ 18.5 mM)
solubility at 2 days ([2]; EtOH, 40° C., stirred 2 days): 24000 µg/mL (≈ 52.3 mM)
solubility at 2 days ([2]; THF, 20° C., stirred 2 days): 3700 µg/mL (≈ 8.07 mM)
solubility at 2 days ([2]; THF, 40° C., stirred 2 days): 7700 µg/mL (≈ 16.8 mM)
solubility at 2 days ([2]; THF/EtOH 8:2 v/v, 20° C., stirred 2 days): 13400 µg/mL (≈ 29.2 mM)
solubility at 2 days ([2]; THF/EtOH 8:2 v/v, 40° C., stirred 2 days): 27800 µg/mL (≈ 60.6 mM)
solubility at 2 days ([2]; THF/H2O 8:2 v/v, 20° C., stirred 2 days): 38600 µg/mL (≈ 84.2 mM)
solubility at 2 days ([2]; THF/H2O 8:2 v/v, 40° C., clear solution with 10 vol of solvent mix): > 100000 µg/mL
solubility at 2 days ([2]; Toluene/2-PrOH 7:3 v/v, 20° C., stirred 2 days): 23100 µg/mL (≈ 50.4 mM)
solubility at 2 days ([2]; Toluene/2-PrOH 7:3 v/v, 40° C., stirred 2 days): 45900 µg/mL (≈ 100 mM)
solubility at 2 days ([2]; Toluene/MeOH 7:3 v/v, 20° C., clear solution with 10 vol of solvent mix): > 100000 µg/mL
solubility at 2 days ([2]; Toluene/MeOH 7:3 v/v, 40° C., clear solution with 10 vol of solvent mix): > 100000 µg/mL
stability relative to other crystalline forms [3]: more stable than Form G at 20 °C
thermodynamic stability of the crystalline form ([3]; from 0° C. to 60° C.): thermodynamically most stable form

Compound: CCCN(CCC)C(=O)C1=Cc2ccc(-c3ccc(C(=O)N4CCCC4)cc3)cc2N=C(N)C1 [Form C, (1E, 4E)-2-amino-N,N-dipropyl-8-(4-(pyrrolidine-1-carbonyl)phenyl)-3H-benzo[b]azepine-4-carboxamide]
stability relative to other crystalline forms [3]: less stable than Forms A and G
form of resulting solid after slurry ([3]; seeded with Form A (15% w/w), slurries in ethanol and acetone during 18 h): pure Form A

Compound: CCCN(CCC)C(=O)C1=Cc2ccc(-c3ccc(C(=O)N4CCCC4)cc3)cc2N=C(N)C1 [Form G, (1E, 4E)-2-amino-N,N-dipropyl-8-(4-(pyrrolidine-1-carbonyl)phenyl)-3H-benzo[b]azepine-4-carboxamide]
Solubility ([1]; EtOH, 0 ° C.): 7600 µg/mL (≈ 16.6 mM)
Solubility ([1]; EtOH, 22 ° C.): 15800 µg/mL (≈ 34.5 mM)
Solubility ([1]; EtOH, 60 ° C.): 36900 µg/mL (≈ 80.5 mM)
Solubility ([1]; MEK, 0 ° C.): 2600 µg/mL (≈ 5.67 mM)
Solubility ([1]; MEK, 22 ° C.): 3100 µg/mL (≈ 6.76 mM)
Solubility ([1]; MEK, 60 ° C.): 4600 µg/mL (≈ 10 mM)
stability relative to other crystalline forms [3]: less stable at 25 °C in comparison to Form A

Continued, values first:

stability relative to other crystalline forms [3]: Form A is more stable than Form H
Compound: CCCN(CCC)C(=O)C1=Cc2ccc(-c3ccc(C(=O)N4CCCC4)cc3)cc2N=C(N)C1 [Form H, (1E, 4E)-2-amino-N,N-dipropyl-8-(4-(pyrrolidine-1-carbonyl)phenyl)-3H-benzo[b]azepine-4-carboxamide]

stability relative to other crystalline forms [3]: less stable than Form A
stability relative to other crystalline forms ([3]; listed as J): less stable than Forms A and G
Compound: CCCN(CCC)C(=O)C1=Cc2ccc(-c3ccc(C(=O)N4CCCC4)cc3)cc2N=C(N)C1 [Form J, (1E, 4E)-2-amino-N,N-dipropyl-8-(4-(pyrrolidine-1-carbonyl)phenyl)-3H-benzo[b]azepine-4-carboxamide]

solubility at 5 days ([4]; aqueous with cosolvent or surfactant or cyclodextrin, solvent EtOH/water 1/1): 3220 µg/mL (≈ 7.02 mM)
solubility at 5 days ([4]; aqueous with cosolvent or surfactant or cyclodextrin, solvent EtOH/water 3/1): 21000 µg/mL (≈ 45.7 mM)
solubility at 5 days ([4]; aqueous with cosolvent or surfactant or cyclodextrin, solvent IPA/water 3/1): 16900 µg/mL (≈ 36.8 mM)
solubility at 5 days ([4]; aqueous with cosolvent or surfactant or cyclodextrin, solvent ac/water 1/2): 480 µg/mL (≈ 1.05 mM)
Solubility ([4]; aqueous with cosolvent or surfactant or cyclodextrin, solvent HOAc/water 1/1): > 100000 µg/mL
solubility at 5 days ([4]; organic solvent or mixture, solvent 1-propanol): 12000 µg/mL (≈ 26.2 mM)
solubility at 5 days ([4]; organic solvent or mixture, solvent 2-Me-THF): 1030 µg/mL (≈ 2.25 mM)
solubility at 5 days ([4]; organic solvent or mixture, solvent 2-propanol): 6860 µg/mL (≈ 15 mM)
solubility at 5 days ([4]; organic solvent or mixture, solvent ACN): 810 µg/mL (≈ 1.77 mM)
solubility at 5 days ([4]; organic solvent or mixture, solvent DCM): > 70000 µg/mL
solubility at 5 days ([4]; organic solvent or mixture, solvent DMSO): 28800 µg/mL (≈ 62.8 mM)
solubility at 5 days ([4]; organic solvent or mixture, solvent EtOAc wet): 2690 µg/mL (≈ 5.87 mM)
solubility at 5 days ([4]; organic solvent or mixture, solvent MCH): 80 µg/mL (≈ 0.174 mM)
solubility at 5 days ([4]; organic solvent or mixture, solvent MEK): 3670 µg/mL (≈ 8 mM)
solubility at 5 days ([4]; organic solvent or mixture, solvent MIBK): 790 µg/mL (≈ 1.72 mM)
solubility at 5 days ([4]; organic solvent or mixture, solvent NMP): 52300 µg/mL (≈ 114 mM)
solubility at 5 days ([4]; organic solvent or mixture, solvent TBME): 160 µg/mL (≈ 0.349 mM)
solubility at 5 days ([4]; organic solvent or mixture, solvent THF): 5710 µg/mL (≈ 12.5 mM)
solubility at 5 days ([4]; organic solvent or mixture, solvent acetone): 1370 µg/mL (≈ 2.99 mM)
solubility at 5 days ([4]; organic solvent or mixture, solvent chlorobenzene): 1810 µg/mL (≈ 3.95 mM)
solubility at 5 days ([4]; organic solvent or mixture, solvent diethylether): 20 µg/mL (≈ 0.0436 mM)
solubility at 5 days ([4]; organic solvent or mixture, solvent dioxane): 5100 µg/mL (≈ 11.1 mM)
solubility at 5 days ([4]; organic solvent or mixture, solvent ethanol): 11600 µg/mL (≈ 25.3 mM)
solubility at 5 days ([4]; organic solvent or mixture, solvent ethyl acetate): 570 µg/mL (≈ 1.24 mM)
solubility at 5 days ([4]; organic solvent or mixture, solvent heptane): 20 µg/mL (≈ 0.0436 mM)
solubility at 5 days ([4]; organic solvent or mixture, solvent iPrOAc): 600 µg/mL (≈ 1.31 mM)
solubility at 5 days ([4]; organic solvent or mixture, solvent methanol): 29800 µg/mL (≈ 65.1 mM)
solubility at 5 days ([4]; organic solvent or mixture, solvent methyl acetate): 940 µg/mL (≈ 2.05 mM)
solubility at 5 days ([4]; organic solvent or mixture, solvent toluene): 450 µg/mL (≈ 0.981 mM)
Solubility ([4]; organic solvent or mixture, solvent trifluoroethanol): > 130000 µg/mL
solubility at 5 days ([4]; solvent water): 40 µg/mL (≈ 0.0872 mM)
form of isolated solid after slurry ([3]; slurries during 18 h at 60° C.): pure Form A
Compound: CCCN(CCC)C(=O)C1=Cc2ccc(-c3ccc(C(=O)N4CCCC4)cc3)cc2N=C(N)C1 [starting material, (1E, 4E)-2-amino-N,N-dipropyl-8-(4-(pyrrolidine-1-carbonyl)phenyl)-3H-benzo[b]azepine-4-carboxamide]
